Assay results reported in patent US20230234942A1, “COMPOUNDS FOR TREATING HUNTINGTON'S DISEASE” (PTC Therapeutics, Inc., priority 2020, published 2023).

System: Endogenous Huntingtin Protein
Assay: Endogenous Huntingtin Protein Assay (ELISA-based MSD electrochemiluminescence)
Assay type: cell-based
In short: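 MSD electrochemiluminescence sandwich ELISA: capture with MW1 (expanded polyQ) or MAB2166 at 1 µg/mL, samples incubated overnight at 4 °C. Detection by rabbit mAb #56565 then SULFO-TAG anti-rabbit antibody, each 0.25 µg/mL for 1 h at room temperature, read in buffer T on SI 6000 imager.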

[1] = Table 2, MSD plates coated with MW1 (expanded polyglutamine) or MAB2166 capture antibody, "inactive" = result above the detection limit of the assay

SMILES | IC50 [1] [nM] | also measured
CC[C@H]1CN(c2ncc(-c3ccc(-c4cn[nH]c4F)cc3O)nn2)C[C@@H](C)N1 [Cpd 223, 2-{3-[(3S,5R)-3-ethyl-5-methylpiperazin-1-yl]-1,2,4-triazin-6-yl]-5-(5-fluoro-1H-pyrazol-4-yl)phenol] | 7 | –
Cc1cnc2nc(-c3ccc(-c4cnc(N5C[C@@H](C)N[C@@H](C)C5)nn4)c(O)c3)sc2n1 [Cpd 119, 2-{3-[(3R,5S)-3,5-dimethylpiperazin-1-yl]-1,2,4-triazin-6-yl}-5-(6-methyl[1,3]thiazolo[4,5-b]pyrazin-2-yl)phenol] | – | IC50 (nM) [1]: inactive
C[C@H]1CN(c2ncc(-c3ccc(-c4cn[nH]c4)cc3O)nn2)CCN1 [Cpd 165, 2-{3-[(3S)-3-methylpiperazin-1-yl]-1,2,4-triazin-6-yl}-5-(1H-pyrazol-4-yl)phenol] | 124 | –
Cc1cncc(-c2ccc(-c3cnc(N4CCN[C@@H](C(C)C)C4)nn3)c(O)c2)n1 [Cpd 143, 5-(6-methylpyrazin-2-yl)-2-{3-[(3S)-3-(propan-2-yl)piperazin-1-yl]-1,2,4-triazin-6-yl}phenol] | 634 | –
C[C@@H]1CN(c2ncc(-c3ccc(-c4cn[nH]c4F)cc3O)nn2)C[C@H](C2CC2)N1 [Cpd 221, 2-{3-[(3S,5R)-3-cyclopropyl-5-methylpiperazin-1-yl]-1,2,4-triazin-6-yl]-5-(5-fluoro-1H-pyrazol-4-yl)phenol] | 4.4 | –
[2H]C([2H])([2H])n1cc(-c2ccc(-c3cnc(N4CCNC(CC)C4)nn3)c(O)c2)cn1 (stereo not drawn) [Cpd 39, 2-[3-(3-ethylpiperazin-1-yl)-1,2,4-triazin-6-yl]-5-[1-(^2H3)methyl-1H-pyrazol-4-yl]phenol] | 63.7 | –
CC(C)[C@H]1CN(c2ncc(-c3ccc(-c4ncc(C#N)s4)cc3O)nn2)CCN1 [Cpd 272, 2-(3-hydroxy-4-{3-[(3S)-3-(propan-2-yl)piperazin-1-yl]-1,2,4-triazin-6-yl}phenyl)-1,3-thiazole-5-carbonitrile] | 356 | –
Cc1cnc(-c2ccc(-c3cnc(N4CCN[C@@H](C(C)C)C4)nn3)c(O)c2)cn1 [Cpd 145, 5-(5-methylpyrazin-2-yl)-2-{3-[(3S)-3-(propan-2-yl)piperazin-1-yl]-1,2,4-triazin-6-yl}phenol] | 480 | –
C[C@@H]1CN(c2ncc(-c3ccc(-c4cn[nH]c4)cc3O)nn2)C[C@H](C(C)(C)C)N1 [Cpd 247, 2-{3-[(3S,5R)-3-tert-butyl-5-methylpiperazin-1-yl]-1,2,4-triazin-6-yl]-5-(1H-pyrazol-4-yl)phenol] | 201 | –
Cc1nc2ccc(-c3ccc(-c4cnc(N5CCN[C@@H](C(C)C)C5)nn4)c(O)c3)cn2n1 [Cpd 85, 5-(2-methyl[1,2,4]triazolo[1,5-a]pyridin-6-yl)-2-{3-[(3S)-3-(propan-2-yl)piperazin-1-yl]-1,2,4-triazin-6-yl}phenol] | 6 | –
Cc1nc(-c2ccc(-c3cnc(N4CCN[C@@H](C5CC5)C4)nn3)c(O)c2)cs1 [Cpd 246, 2-{3-[(3S)-3-cyclopropylpiperazin-1-yl]-1,2,4-triazin-6-yl}-5-(2-methyl-1,3-thiazol-4-yl)phenol] | 28.4 | –
CC(C)[C@H]1CN(c2ncc(-c3ccc(-c4cnn5ccccc45)cc3O)nn2)CCN1 [Cpd 244, 2-{3-[(3S)-3-(propan-2-yl)piperazin-1-yl]-1,2,4-triazin-6-yl}-5-(pyrazolo[1,5-a]pyridin-3-yl)phenol] | 382 | –
COc1cc(-c2ccc(-c3cnc(N4C[C@@H](C)N[C@@H](C5CC5)C4)nn3)c(O)c2)ncn1 [Cpd 235, 2-{3-[(3S,5R)-3-cyclopropyl-5-methylpiperazin-1-yl]-1,2,4-triazin-6-yl}-5-(6-methoxypyrimidin-4-yl)phenol] | 8.1 | –
[2H]C([2H])([2H])n1cc(-c2ccc(-c3cnc(N4C[C@@H](C)N(C)[C@@H](C)C4)nn3)c(O)c2)cn1 [Cpd 51, 5-[1-(^2H3)methyl-1H-pyrazol-4-yl]-2-{3-[(3R,5S)-3,4,5-trimethylpiperazin-1-yl]-1,2,4-triazin-6-yl}phenol] | 330 | –
C[C@@H]1CN(c2ncc(-c3ccc(-c4ccc5nccn5n4)cc3O)nn2)C[C@H](C)N1 [WO/2019/191229 A1 Cpd 385, reference compound] | – | IC50 (Table 3, selected compounds from WO/2019/191229 A1, same MSD assay): 33.1 nM
Oc1cc(-c2cn[nH]c2)ccc1-c1cnc(N2CCN[C@H](C3CC3)C2)nn1 [Cpd 136, 2-{3-[(3R)-3-cyclopropylpiperazin-1-yl]-1,2,4-triazin-6-yl}-5-(1H-pyrazol-4-yl)phenol] | 50.5 | –
CC(C)[C@@H]1CN(c2ncc(-c3ccc(-c4cn[nH]c4)cc3O)nn2)C[C@H](C)N1 [Cpd 216, 2-{3-[(3S,5R)-3-methyl-5-(propan-2-yl)piperazin-1-yl]-1,2,4-triazin-6-yl]-5-(1H-pyrazol-4-yl)phenol] | 218 | –

Continued, in another order:

IC50 [1] [nM] | SMILES | also measured
11.3 | COc1cc(-c2ccc(-c3cnc(N4C[C@@H](C)N[C@@H](C(C)C)C4)nn3)c(O)c2)ncn1 [Cpd 230, 5-(6-methoxypyrimidin-4-yl)-2-{3-[(3R,5S)-3-methyl-5-(propan-2-yl)piperazin-1-yl]-1,2,4-triazin-6-yl}phenol] | –
3.8 | COc1cc(-c2ccc(-c3cnc(N4CCN[C@@H](C(C)C)C4)nn3)c(O)c2)nn2nc(C)nc12 [Cpd 70, 5-(8-methoxy-2-methyl[1,2,4]triazolo[1,5-b]pyridazin-6-yl)-2-{3-[(3S)-3-(propan-2-yl)piperazin-1-yl]-1,2,4-triazin-6-yl}phenol] | –
158 | CC(C)[C@H]1CN(c2ncc(-c3ccc(-c4nccs4)cc3O)nn2)CCN1 [Cpd 185, 2-{3-[(3S)-3-(propan-2-yl)piperazin-1-yl]-1,2,4-triazin-6-yl}-5-(1,3-thiazol-2-yl)phenol] | –
214 | CC(C)[C@H]1CN(c2ncc(-c3ccc(-c4ccc5nsnc5c4)cc3O)nn2)CCN1 [Cpd 263, 5-(2,1,3-benzothiadiazol-5-yl)-2-{3-[(3S)-3-(propan-2-yl)piperazin-1-yl]-1,2,4-triazin-6-yl]phenol] | –
1440 | Oc1cc(-c2cn[nH]c2)ccc1-c1cnc(N2CCNC(c3ccccc3)C2)nn1 (stereo not drawn) [Cpd 61, 2-[3-(3-phenylpiperazin-1-yl)-1,2,4-triazin-6-yl]-5-(1H-pyrazol-4-yl)phenol] | –
17.1 | [2H]C([2H])([2H])n1cc(-c2ccc(-c3cnc(N4CCNC(C(C)(C)O)C4)nn3)c(O)c2)cn1 (stereo not drawn) [Cpd 19, 2-{3-[3-(2-hydroxypropan-2-yl)piperazin-1-yl]-1,2,4-triazin-6-yl}-5-[1-(^2H3)methyl-1H-pyrazol-4-yl]phenol] | –
7.3 | Cc1nc2cnc(-c3ccc(-c4cnc(N5CCN[C@@H](C(C)C)C5)nn4)c(O)c3)cn2n1 [Cpd 91, 5-(2-methyl[1,2,4]triazolo[1,5-a]pyrazin-6-yl)-2-{3-[(3S)-3-(propan-2-yl)piperazin-1-yl]-1,2,4-triazin-6-yl}phenol] | –
19.8 | COc1cc(-c2ccc(-c3cnc(N4C[C@@H](C)N[C@@H](C(C)C)C4)nn3)c(O)c2)ccn1 [Cpd 257, 5-(2-methoxypyridin-4-yl)-2-{3-[(3R,5S)-3-methyl-5-(propan-2-yl)piperazin-1-yl]-1,2,4-triazin-6-yl}phenol] | –
38.9 | CC[C@H]1CN(c2ncc(-c3ccc(-n4nccn4)cc3O)nn2)CCN1 [Cpd 132, 2-{3-[(3S)-3-ethylpiperazin-1-yl]-1,2,4-triazin-6-yl}-5-(2H-1,2,3-triazol-2-yl)phenol] | –
73.8 | CC[C@@H]1CN(c2ncc(-c3ccc(-c4cn[nH]c4F)cc3O)nn2)C[C@H](C)N1 [Cpd 218, 2-{3-[(3R,5S)-3-ethyl-5-methylpiperazin-1-yl]-1,2,4-triazin-6-yl}-5-(5-fluoro-1H-pyrazol-4-yl)phenol] | –
25.4 | CC(C)[C@H]1CN(c2ncc(-c3ccc(-n4ncc5cncnc54)cc3O)nn2)CCN1 [Cpd 162, 2-{3-[(3S)-3-(propan-2-yl)piperazin-1-yl]-1,2,4-triazin-6-yl}-5-(1H-pyrazolo[3,4-d]pyrimidin-1-yl)phenol] | –
104 | C[C@@H]1CN(c2ncc(-c3ccc(-n4nccn4)cc3O)nn2)C[C@H](C2CCC2)N1 [Cpd 237, 2-{3-[(3S,5R)-3-cyclobutyl-5-methylpiperazin-1-yl]-1,2,4-triazin-6-yl}-5-(2H-1,2,3-triazol-2-yl)phenol] | –
10.2 | Cc1cn2nc(-c3ccc(-c4cnc(N5CCN[C@H](C)C5)nn4)c(O)c3)cc(C)c2n1 [Cpd 98, 5-(2,8-dimethylimidazo[1,2-b]pyridazin-6-yl)-2-{3-[(3R)-3-methylpiperazin-1-yl]-1,2,4-triazin-6-yl]phenol] | –
466 | CC(C)[C@H]1CN(c2ncc(-c3ccc(-c4cnccn4)cc3O)nn2)CCN1 [Cpd 144, 2-{3-[(3S)-3-(propan-2-yl)piperazin-1-yl]-1,2,4-triazin-6-yl}-5-(pyrazin-2-yl)phenol] | –
18.2 | CC(C)[C@H]1CN(c2ncc(-c3ccc(-c4cn[nH]c4)cc3O)nn2)C[C@@H](C)N1 [Cpd 229, 2-{3-[(3R,5S)-3-methyl-5-(propan-2-yl)piperazin-1-yl]-1,2,4-triazin-6-yl}-5-(1H-pyrazol-4-yl)phenol] | –
12.2 | CC(C)(O)C1CN(c2ncc(-c3ccc(-n4nccn4)cc3O)nn2)CCN1 (stereo not drawn) [Cpd 14, 2-{3-[3-(2-hydroxypropan-2-yl)piperazin-1-yl]-1,2,4-triazin-6-yl}-5-(2H-1,2,3-triazol-2-yl)phenol] | –
40.2 | Oc1cc(-c2cn[nH]c2F)cc(F)c1-c1cnc(N2CCNC(C3CC3)C2)nn1 (stereo not drawn) [Cpd 32, 2-[3-(3-cyclopropylpiperazin-1-yl)-1,2,4-triazin-6-yl]-3-fluoro-5-(5-fluoro-1H-pyrazol-4-yl)phenol] | –
7.8 | CC(C)[C@H]1CN(c2ncc(-c3ncc(-c4cc(F)c5nn(C)cc5c4)cc3O)nn2)CCN1 [Cpd 157, 5-(7-fluoro-2-methyl-2H-indazol-5-yl)-2-{3-[(3S)-3-(propan-2-yl)piperazin-1-yl]-1,2,4-triazin-6-yl}pyridin-3-ol] | –
28.5 | COC1(C2CN(c3ncc(-c4ccc(-c5cn[nH]c5)cc4O)nn3)CCN2)CC1 (stereo not drawn) [Cpd 29, 2-{3-[3-(1-methoxycyclopropyl)piperazin-1-yl]-1,2,4-triazin-6-yl}-5-(1H-pyrazol-4-yl)phenol] | –
